This note sets out measurements from patent US20260272916A1, “RADIATION SENSITIVITY ENHANCING COMPOSITION CONTAINING ARIPIPRAZOLE AS ACTIVE INGREDIENT” (KOREA INSTITUTE OF RADIOLOGICAL & MEDICAL SCIENCES, priority 2018, published 2026).

Experiment [1] relates to MCF-7 cells. Put plainly: Drug library screen for radiation sensitizers, EZ-Cytox cell viability. It counts as cell-based, human. More on the design: dose or concentration left out as unconfirmed. Conditions: 96 hours, FIG. 1. The procedure: MCF-7 cells, a human breast cancer cell line, were adjusted to a concentration of 5000 cells/well, then inoculated into a 96 well plate and pre-cultured for 24 hours. Subsequently, the medium was removed, and each drug in Enzo's drug library at a concentration of […] was treated alone or in combination with radiation. After 96 hours, the survival rate of cells was measured by Dogen's EZ-Cytox Cell Viability Assay kit.

Experiment [2] relates to MCF-7 cells. Put plainly: Cell viability at various aripiprazole concentrations alone or with radiation (EZ-Cytox). It counts as cell-based, human. The settings on record: 96 hours, FIG. 2. The procedure:
In order to confirm the effect of aripiprazole on radiation sensitivity in cancer cells, a cell viability measurement experiment was performed in breast cancer cells having radiation resistance using the […] as follows. After the MCF-7 cells were adjusted to a concentration of 5000 cells/well, they were inoculated into a 96-well plate and pre-cultured for 24 hours. Thereafter, the medium was removed and aripiprazole ([…]) was treated alone or in combination with radiation. After 96 hours, the survival rate of cells was measured by Dogen's EZ-Cytox Cell Viability Assay kit.

The test system of experiment [3] is MCF-7 cells. The settings on record: 24 hours, FIG. 3. The protocol:
The MCF-7 cells were treated with aripiprazole (1, 5, 10, 20 μM) alone or in combination with radiation. After 24 hours, after washing with PBS, proteins were extracted from the cells, and the degree of PARP cleavage was confirmed by Western blot.
(§1) After 24 hours, after washing with PBS, proteins were extracted from the cells, and the degree of PARP cleavage was confirmed by Western blot.
as §1

Experiment [4] concerns MCF-7 cells. The settings on record: MCF-7, combination with radiation vs single treatments, 24 hours, FIG. 4. The procedure: (§2) After the MCF-7 cells or U251 cells were adjusted to a concentration of 5000 cells/well, they were inoculated into a 96 well plate and pre-cultured for 24 hours. Thereafter, the medium was removed and aripiprazole was treated alone or in combination with radiation. After 24 hours, the degree of DNA fragmentation was confirmed using Roche's Cell Death Detection ELISA plus kit.
(§3) After 24 hours, the degree of DNA fragmentation was confirmed using Roche's Cell Death Detection ELISA plus kit.
as §3

The next experiment concerns U251 cells. In words: DNA fragmentation, Cell Death Detection ELISA plus kit. It counts as cell-based. The settings on record: U251, combination with radiation vs single treatments, 24 hours, FIG. 4. The protocol:
as §2

As to `O=C1CCc2ccc(OCCCCN3CCN(c4cccc(Cl)c4Cl)CC3)cc2N1` [aripiprazole, 7-{4-[4-(2,3-dichlorophenyl)-1-piperazinyl]-butoxy}-3,4-dihydro-2(1H)-quinolinone], the “survival rate of cells” value in the experiment on MCF-7 cells [1] (MCF-7, drug treatment alone) was “no effect on the survival rate of cells”; with MCF-7 cells [1] (MCF-7, in combination with radiation), “lowers the survival rate of radiation-resistant cells”. Besides, the radiation sensitizing effect result in the experiment on MCF-7 cells [2] (MCF-7, aripiprazole 5, 10, 20 μM with radiation) is listed as “excellent radiation sensitizing effect in a concentration-dependent manner”. Besides, in the experiment on MCF-7 cells [2] (MCF-7, aripiprazole 5, 10, 20 µM, combination with radiation vs alone), the “survival rate reduction effect” value is listed as “more excellent when treated in combination with radiation than the treatment with aripiprazole alone”. The “induction of apoptosis in radiation-treated cancer cells” value in the experiment with MCF-7 cells [3] (MCF-7, aripiprazole 1, 5, 10, 20 μM with radiation) is “induce apoptosis in radiation-treated cancer cells in a concentration-dependent manner”. Also, the “PARP cleavage induction effect” value in the experiment with MCF-7 cells [3] (MCF-7, aripiprazole 1, 5, 10, 20 μM, combination with radiation vs alone) is reported as “more excellent when treated in combination with radiation than treated aripiprazole alone”. The “DNA fragmentation inducing effect” value with MCF-7 cells [4] and in the experiment on U251 cells was “superior to the effect of adding up each treatment” throughout.
